Laboratory results published in the Deep4Chem optical property database.

Assay: solvent given as SMILES

Compound: N#C[Se]CCCCCOc1ccc2ccc(=O)oc2c1
- emission maximum (in C1CCCCC1): 378 nm
- emission maximum (in C1CCOC1): 391 nm
- emission maximum (in C1COCCO1): 386 nm
- emission maximum (in CC#N): 387 nm
- emission maximum (in CCCCCCC): 391 nm
- emission maximum (in CCO): 386 nm
- emission maximum (in CN(C)C=O): 396 nm
- emission maximum (in CO): 391 nm
- emission maximum (in O): 397 nm
- emission maximum (in OCCO): 392 nm

Compound: CC1=CC(C)=[N+]2C1=C(c1ccc(I)cc1)c1c(C)cc(C)n1[B-]2(Oc1ccccc1)Oc1ccccc1
- emission maximum (in ClC(Cl)Cl): 517.5 nm

Compound: CCn1c(-c2ccc(-c3ccc(-c4ccc(-c5n(CC)c6ccccc6[n+]5CC)cc4)c(C)c3)cc2)[n+](CC)c2ccccc21
- emission maximum (in O): 400 nm

Compound: CN(C)c1ccc(/C=C/c2cnc(/C=C/c3ccc(C#N)cc3)o2)cc1
- emission maximum (in ClCCl): 640 nm

Compound: COc1ccc(N(c2ccc(OC)cc2)c2ccc(-c3ccc(C=C(C#N)C#N)cc3)cc2)cc1
- emission maximum (in ClC(Cl)Cl): 696 nm

Compound: COc1ccc(-n2c(-c3ccc(-c4cncc5ccccc45)cc3)nc(-c3ccccc3)c2-c2ccccc2)cc1
- emission maximum (in C1CCOC1): 432 nm

Compound: COc1ccc(O[B-]2(Oc3ccc(OC)cc3)n3c(C)cc(C)c3C(c3ccc(I)cc3)=C3C(C)=CC(C)=[N+]32)cc1
- emission maximum (in ClC(Cl)Cl): 518.49 nm

Compound: CCCCn1c2ccc(-c3ccccc3)cc2c2ccc3c4cc(-c5ccccc5)ccc4n(CCCC)c3c21
- emission maximum (in ClC(Cl)Cl): 414 nm

Compound: COc1ccccc1-c1nc2c3cccnc3c3ncccc3c2n1-c1ccccc1
- emission maximum (in Cc1ccccc1): 396 nm

Compound: CCCCc1cc(-c2cccc(COC)c2)oc1-c1cccc(-c2cc(CCCC)c(-c3cccc(-c4oc(-c5cccc(-c6oc(-c7cccc(COC)c7)cc6CCCC)c5)cc4CCCC)c3)o2)c1
- emission maximum (in ClC(Cl)Cl): 373 nm

Compound: COc1ccc(OC)c(C(C)=O)c1
- emission maximum (in CO): 449 nm

Compound: CCCCn1c2ccccc2c2cc(C#Cc3ccc4ccc5cccc6ccc3c4c56)ccc21
- emission maximum (in ClCCl): 450 nm

Compound: COc1cc(-c2nc(-c3ccccc3)c3ccccn23)ccc1O
- emission maximum (in CC#N): 489 nm

Compound: O=C1c2cccc3c(-n4c5ccccc5c5ccccc54)ccc(c23)C(=O)N1c1ccccc1
- emission maximum (in C1CCOC1): 546 nm
- emission maximum (in CCCCCC): 443 nm
- emission maximum (in ClC(Cl)Cl): 495 nm
- emission maximum (in ClCCl): 568 nm

Compound: Cc1ccc(-c2ccc(/C=C/c3ccccc3)cn2)nc1
- emission maximum (in CC#N): 392 nm

Compound: Cc1ccc2nc(-c3cc(-c4nc5ccc(C)cc5[nH]4)cc(-c4nc5ccc(C)cc5[nH]4)c3)[nH]c2c1
- emission maximum (in CS(C)=O): 386.5 nm

Compound: C1=C(c2ccccc2)C=C(c2ccccc2)/C1=C/c1ccc2ccc3cccc4ccc1c2c34
- emission maximum (in C1CCOC1): 480 nm

Compound: CN(C)c1ccc(C2=Nc3scc(-c4ccc(N(C)C)cc4)[n+]3[B-](F)(F)O2)cc1
- emission maximum (in C1CCOC1): 616 nm
- emission maximum (in Cc1ccccc1): 518 nm
- emission maximum (in ClCCl): 590 nm

Compound: CCCCCCCCOc1ccc(C#Cc2ccc3oc4ccccc4c3c2)c(OCCCCCCCC)c1
- emission maximum (in ClCCl): 373 nm

Compound: c1ccc(-c2ccc(-c3ccccc3)cc2)cc1
- emission maximum (in C1CCOC1): 340 nm
- emission maximum (in C1COCCO1): 342 nm
- emission maximum (in CCO): 375 nm

Compound: CCN(CC)c1ccc2nc3c4ccccc4c(=O)cc-3oc2c1
- emission maximum (in C1COCCO1): 582 nm
- emission maximum (in CC#N): 620 nm
- emission maximum (in CC(C)=O): 614 nm
- emission maximum (in CCCCCC): 532 nm
- emission maximum (in CCO): 638 nm
- emission maximum (in CCOC(C)=O): 594 nm
- emission maximum (in CO): 643 nm
- emission maximum (in CS(C)=O): 635 nm
- emission maximum (in Cc1ccccc1): 572 nm
- emission maximum (in ClCCl): 608 nm

Compound: c1ccc2c(c1)-c1c(cc3ccc4cccc5ccc1c3c45)C21c2cc(-c3ccc4ccc5cccc6ccc3c4c56)ccc2-c2ccc(-c3ccc4ccc5cccc6ccc3c4c56)cc21
- emission maximum (in ClC(Cl)Cl): 424 nm

Compound: CC1(C)C(/C=C/c2cc3ccc(O)cc3oc2=O)=[N+](CCCS(=O)(=O)[O-])c2ccc3c(S(=O)(=O)O)cc(S(=O)(=O)O)cc3c21
- emission maximum (in CCO): 659 nm
- emission maximum (in CS(C)=O): 625 nm
- emission maximum (in O): 643 nm

Compound: F[B-]1(F)OC(c2cccc(Br)c2)=Cc2c3ccccc3c3ccccc3[n+]21
- emission maximum (in ClC(Cl)Cl): 446 nm

Compound: CCCCCOc1cc2oc(=O)c3c4ccc(N)cc4c4ccc5cccc6c(c1)c2c3c4c56
- emission maximum (in C1CCOC1): 550 nm

Compound: CN(C)c1ccc(-c2nc3nccnc3n2-c2ccccc2)cc1
- emission maximum (in CC#N): 477 nm

Compound: N#CC(C#N)=Cc1ccc(-c2ccc(N(c3ccccc3)c3ccccc3)cc2)o1
- emission maximum (in ClC(Cl)Cl): 618 nm

Compound: Cc1ccc(-c2nc(-c3ccc(O)cc3)[nH]c2-c2ccc(C)cc2)cc1
- emission maximum (in CO): 395 nm

Compound: COc1ccc2c(c1)CCc1c(-c3ccccc3)c3n(c1-2)[B-](F)(F)[N+]1=C2C=NC=CN2[B-](F)(F)[N+]1=C3
- emission maximum (in ClCCl): 576 nm

Compound: COc1ccc(N(c2ccc(OC)cc2)c2ccc3c(c2)C2(c4cc(N(c5ccc(OC)cc5)c5ccc(OC)cc5)ccc4C=C3)c3ccccc3-c3ccccc32)cc1
- emission maximum (in ClCCl): 483 nm

Compound: CC(C)n1c2cc(O)c(F)cc2c(=O)c2cc(F)c(O)cc21
- emission maximum (in CCO): 438 nm

Compound: COc1ccccc1C1=[N+]2C(=C(c3ccccc3)c3c4c(c(-c5ccccc5OC)n3[B-]2(F)F)C2CCC4CC2)C2=C1C1CCC2CC1
- emission maximum (in ClCCl): 583 nm

Compound: c1ccc(N2c3ccc4ccccc4c3-c3c4ccccc4cn[n+]3[B-]2(c2ccccc2)c2ccccc2)cc1
- emission maximum (in Cc1ccccc1): 657 nm

Compound: C[Si](C)(C)c1ccc(-c2nc3ccccc3n2-c2ccccc2)cc1
- emission maximum (in ClCCl): 358 nm

Compound: CC1(C)c2ccccc2N(c2cc[n+]3c(c2)-c2ccccc2O[B-]3(F)F)c2ccccc21
- emission maximum (in Cc1ccccc1): 540 nm
- emission maximum (in O=P(c1ccccc1)(c1ccccc1)c1ccccc1Oc1ccccc1P(=O)(c1ccccc1)c1ccccc1): 542 nm

Compound: CCOC(=O)CSc1nc2c(c(C#N)c1C#N)CCCCCC2
- emission maximum (in c1ccccc1): 408 nm

Compound: C(#Cc1ccccc1)C(C#Cc1ccccc1)=Cc1cccc(C=C(C#Cc2ccccc2)C#Cc2ccccc2)c1
- emission maximum (in ClC(Cl)Cl): 413 nm

Compound: ClP1(Cl)=N[P@@](Cl)(Oc2ccc3ccc4cccc5ccc2c3c45)=N[P@@](Cl)(Oc2ccc3ccc4cccc5ccc2c3c45)=N1
- emission maximum (in ClCCl): 455 nm

Compound: CN(C)c1nc(N)nc2c1nc(C#N)n2Cc1ccccc1
- emission maximum (in C1COCCO1): 373 nm
- emission maximum (in CC#N): 378 nm
- emission maximum (in CO): 389 nm
- emission maximum (in ClCCl): 375 nm

Compound: COc1ccc2c(c1)nc(-c1ccccc1)n2-c1ccccc1
- emission maximum (in CC#N): 391 nm

Compound: CCOC(=O)COc1ccc(/C=C/C2=C3c4ccccc4C(c4[nH]c(C)cc4C)=[N+]3[B-](F)(F)n3c(C)cc(C)c32)cc1
- emission maximum (in C1CCOC1): 684 nm
- emission maximum (in CC#N): 681 nm
- emission maximum (in CCCCCC): 679 nm
- emission maximum (in CO): 680 nm
- emission maximum (in Cc1ccccc1): 690 nm
- emission maximum (in ClCCl): 687 nm

Compound: COc1ccc(-c2c3ccc(=[N+]4CCCCC4)cc-3oc3cc(N4CCCCC4)ccc23)cc1
- emission maximum (in CCO): 582 nm
- emission maximum (in ClCCl): 582 nm

Compound: N#Cc1c(-n2c3ccc(Cl)cc3c3cc(Cl)ccc32)c(C#N)c(-n2c3ccc(Cl)cc3c3cc(Cl)ccc32)c(-n2c3ccc(Cl)cc3c3cc(Cl)ccc32)c1-n1c2ccc(Cl)cc2c2cc(Cl)ccc21
- emission maximum (in Cc1ccccc1): 518 nm

Compound: Cc1ccc(/C2=c3\cc/c(o3)=C(\c3ccc(C)cc3)c3ccc([nH]3)-c3ccc4n3[B-](F)(F)[N+]3=C(C=CC3=C4c3ccc[nH]3)c3ccc2[nH]3)cc1
- emission maximum (in ClC(Cl)Cl): 729 nm

Compound: CCC(C)(C)c1ccc2c(c1)C(CCOC)(CCOC)c1cc(-c3ccc(-c4ccc5c(c4)C(CCOC)(CCOC)c4cc(C(C)(C)CC)ccc4-5)cc3)ccc1-2
- emission maximum (in C1CCCCC1): 380 nm

Compound: CC1=CC2=Nc3nc(C)[n+](C)cc3CN2C=C1
- emission maximum (in CC#N): 432 nm
- emission maximum (in CCO): 433 nm
- emission maximum (in O): 426 nm
